For two compounds, Km results are on record in paper PMC4967823, “A single amino acid substitution in a chitinase of the legume Medicago truncatula is sufficient to gain Nod-factor hydrolase activity” (Open Biology, 2016).

This experiment concerns the target T1, MtCHIT5b (Medicago truncatula, UniProt A0A072UR65).
T1 construct: gene CHIT5B; without predicted signal peptide, N-terminal 6xHis tag (pET28b or pET32a for variants), E. coli BL21(DE3), Ni-NTA
Kind of experiment: reverse-phase HPLC (C18) hydrolysis assay. The class given is biochemical. The settings on record: 25 mM sodium acetate pH 5.0, 37 C. From the text:
reverse-phase HPLC (C18) hydrolysis assay on MtCHIT5b

T1 sequence (A0A072UR65 27-379): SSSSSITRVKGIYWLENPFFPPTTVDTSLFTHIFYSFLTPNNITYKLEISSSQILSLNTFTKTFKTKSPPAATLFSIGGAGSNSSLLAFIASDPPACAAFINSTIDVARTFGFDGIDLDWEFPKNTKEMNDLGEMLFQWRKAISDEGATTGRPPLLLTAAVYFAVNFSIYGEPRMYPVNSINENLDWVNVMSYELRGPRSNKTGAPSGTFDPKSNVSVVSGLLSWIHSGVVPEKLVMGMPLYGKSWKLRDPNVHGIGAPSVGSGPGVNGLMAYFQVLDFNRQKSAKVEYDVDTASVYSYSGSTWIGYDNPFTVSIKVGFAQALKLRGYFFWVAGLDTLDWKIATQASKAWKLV

As a reminder, the Km is the concentration of substrate that gives half-maximal velocity. With `CCCCCC/C=C\CCCCC/C=C/C(=O)N[C@H]1[C@H](O[C@H]2[C@H](O)[C@@H](NC(C)=O)[C@H](O[C@H]3[C@H](O)[C@@H](NC(C)=O)[C@H](O[C@H]4[C@H](O)[C@@H](NC(C)=O)C(O)O[C@@H]4COS(=O)(=O)O)O[C@@H]3CO)O[C@@H]2CO)O[C@H](COC(C)=O)[C@@H](O)[C@@H]1O` (some centres unmarked) [NodSm-IV(C16 : 2, Ac, S)], the Michaelis-Menten constant (Km) stood at 96.9 ± 18.8 µM. Take `CCCCCC/C=C\CCCCC/C=C/C(=O)N[C@H]1[C@H](O[C@H]2[C@H](O)[C@@H](NC(C)=O)[C@H](O[C@H]3[C@H](O)[C@@H](NC(C)=O)[C@H](O[C@H]4[C@H](O)[C@@H](NC(C)=O)C(O)O[C@@H]4COS(=O)(=O)O)O[C@@H]3CO)O[C@@H]2CO)O[C@H](CO)[C@@H](O)[C@@H]1O` (some centres unmarked) [NodSm-IV(C16 : 2, S)]: the Km came out at 58.6 ± 11.4 µM.
